Article PMC6468543, “Rational Design, Synthesis and Preliminary Evaluation of Novel Fusarinine C-Based Chelators for Radiolabeling with Zirconium-89” (Biomolecules, 2019)
“Also recorded” adds a separate entry of the source. Where two headings read alike, the source gives them in different places.

Assays:
Solubility in water = format: physicochemical; conditions: unlabeled chelator
[1] = MicroPET/CT imaging, image-based quantitation of bone uptake (knee); format: in vivo, BALB/c mice; conditions: BALB/c mouse, i.v., 24 h p.i., mean of left and right knees, n = 1
Description: Micro-Positron Emission Tomography/computer tomography (MicroPET/CT) imaging studies were carried out using an Inveon microPET/CT scanner (Siemens Preclinical Solutions, Knoxville, TN, USA). Healthy female BALB/c mice were injected intravenously with 5 MBq of either [^89Zr]Zr-FSC(succ)3 (16 µg, n = 1) or [^89Zr]Zr-TAFC (13 µg, n = 1). MicroPET/CT images were acquired under general anesthesia (isoflurane/O2) for 20 min. Imaging data were recorded via static scans at 80 min and 24 h p.i. The microPET/CT scans were reconstructed and merged with OSEM3D-SPMAP (PET, matrix size 256 × 256) and Feldkamp (CT, Shepp Logan filter). For evaluation of bone uptake, image-based quantitation was carried out by selecting volumes of interest around each knee region and % ID/cm^3 were calculated for both time points (VivoQuant image analysis software, Invicro LLC, Boston, MA, USA) and expressed as mean values of left and right knees to compare both compounds.

[2] = Transchelation study: 89Zr-FSC derivative complexes with 1000-fold molar excess of DFO; format: physicochemical; conditions: RT, after 7 days
Description: (§1) [^89Zr]Zr-DFO (50 µL) was mixed with a 1000-fold molar excess of either FSC(succ)2AA or FSC(succ)3 and [^89Zr]Zr-TAFC (or [^89Zr]Zr-FSC(succ)2AA, [^89Zr]Zr-FSC(succ)3) (50 µL each) was mixed with a 1000-fold molar excess of DFO and incubated for seven days at RT. At selected time points, aliquots of the solutions were analyzed in triplicate directly via analytical RP-HPLC. The transchelation was determined by the ratio of [^89Zr]Zr-DFO and [^89Zr]Zr-FSC derivatives.

[3] = set-up: method as in PMID 25941834; conditions: incubation time 7 days, previously reported data; cited from earlier work
[4] = set-up: method as in PMID 25941834; conditions: human serum, incubation time 7 days, previously reported data; cited from earlier work
[5] = Acid dissociation study in 1000-fold molar excess of EDTA solution; format: physicochemical
Description: (§2) Determination of the stability of [^89Zr]Zr-DFO, [^89Zr]Zr-TAFC, [^89Zr]Zr-FSC(succ)2AA and [^89Zr]Zr-FSC(succ)3 was carried out by incubating the radioligands in PBS, a 1000-fold molar excess of ethylenediaminetetraacetic acid (EDTA) solution (radioligand vs. […] Then, the precipitate was washed three times using CH3CN before analysis.

[6] = set-up: method as in PMID 25941834; conditions: previously reported data; cited from earlier work
[7] = Biodistribution study in BALB/c mice; format: in vivo; conditions: i.v., 6 h p.i., n = 4
Description: For the evaluation of biodistribution, four female BALB/c mice (Charles River Laboratories, Sulzfeld, Germany) were intravenously injected with [^89Zr]Zr-FSC(succ)3 (1.5 MBq/mouse, 4.8 µg precursor) or [^89Zr]Zr-TAFC (1.5 MBq/mouse, 4 µg) into the tail vein and sacrificed by cervical dislocation at 6 h post injection (p.i.). Organs (spleen, pancreas, stomach, intestine, kidney, liver, heart, and lung), blood, muscle tissue, and bone were dissected, weighed and then measured in the gamma counter to calculate the percentage of injected dose per gram of tissue (% ID/g). Statistical analysis was performed using an independent two-population t-test (significance level p = 0.05) and Origin 6.1 software (Northampton, MA, USA).

[8] = Transchelation study: [89Zr]Zr-DFO with 1000-fold molar excess of FSC(succ)2AA or FSC(succ)3; format: physicochemical; conditions: 1000-fold molar excess of FSC(succ)2AA or FSC(succ)3, RT, within 1 h
Description: as §1

[9] = Stability assay in human serum; format: in vitro ADME; conditions: 37 °C, incubation time 7 days
Description: as §2

[10] = Protein binding assay in fresh human serum (size exclusion spin column); format: in vitro ADME; conditions: 37 °C, incubation time 7 days
Description: The protein binding property was evaluated by incubating [^89Zr]Zr-FSC(succ)2AA or [^89Zr]Zr-FSC(succ)3 for seven days at 37 °C in fresh human serum. Subsequently, 30 µL of the solution was passed through a size exclusion spin column (MicroSpinG-50 column, GE Healthcare, Buckinghamshire, UK) via centrifugation at 2000 rcf for 2 min. Protein binding of the complexes in triplicate was determined by measuring the activity on the column (non-protein bound) and the activity in the eluate (protein bound) in the gamma counter.

[11] = Distribution coefficient (logD), octanol/PBS; format: physicochemical; conditions: n = 5
Description: A volume of 500 µL PBS including 0.5 MBq radioligand ([^89Zr]Zr-FSC(succ)2AA or [^89Zr]Zr-FSC(succ)3) was combined with 500 µL octanol. The mixture was vortexed for 15 min, and centrifuged for 2 min at 2000 rcf. Subsequently, 50 µL aliquots of the aqueous and the octanol layer were collected, measured in a 2480 Wizard^2 Automatic Gamma Counter (Perkin Elmer, Vienna, Austria), and distribution coefficient (logD) values were calculated using Excel 2013 (n = 5) (Redmond, WA, USA).

Row | SMILES | solubility in water (Solubility in water) | bone uptake in the knee [1] | intact complex [2] | intact complex ([5]; pH 4, day 7, 37 °C) | intact complex ([5]; pH 6, 37 °C) | resistance to transchelation ([5]; pH 7, over seven days, 37 °C) | activity in blood [7] | Stability in Human Serum (%) [9] | Protein Binding (%) [10] | Log D [11] | Stability in Human Serum (%) [3] | Protein Binding (%) [4] | Log D [6] | also measured
1 | C/C1=C/C(=O)N(O)CCCC(NC(=O)CCC(=O)O)C(=O)OCC/C(C)=C\C(=O)N(O)CCCC(NC(=O)CCC(=O)O)C(=O)OCC/C(C)=C\C(=O)N(O)CCCC(NC(=O)CCC(=O)O)C(=O)OCC1 (stereo not drawn) [FSC(succ)3, Fusarinine C (succ)3] | high solubility in water |  |  |  |  |  |  |  |  |  |  |  |  | 
2 | CC(=O)N([O-])CCCCCNC(=O)CCC(=O)N([O-])CCCCCNC(=O)CCC(=O)N([O-])CCCCCN.[89Zr+4] [[^89Zr]Zr-DFO, ^89Zr-desferrioxamine B] |  |  |  |  |  |  |  |  |  |  | 99.3% | 8.7 ± 1.0% | −3.0 ± 0.1 | acid dissociation (decomposition) ([5]; pH 4): totally decomposing on day 3; transchelation ([5]; pH 7, over seven days, 37 °C): ~60%; transchelation of 89Zr from [89Zr]Zr-DFO to FSC(succ)2AA or FSC(succ)3 [8]: Almost quantitative transchelation; also recorded: total transchelation
3 | CC(=O)NC1CCCN([O-])C(=O)C=C(C)CCOC(=O)C(NC(=O)CCC(=O)[O-])CCCN([O-])C(=O)C=C(C)CCOC(=O)C(NC(=O)CCC(=O)[O-])CCCN([O-])C(=O)C=C(C)CCOC1=O.[89Zr+4] (mixture of isomers) [[^89Zr]Zr-FSC(succ)2AA] |  |  | 30.8% |  | 76% | excellent resistance to transchelation |  | 99.4% | 5.9 ± 1.6% | −3.3 ± 0.1 |  |  |  | 
4 | CC(=O)NC1CCCN(O)C(=O)/C=C(/C)CCOC(=O)C(NC(=O)CCC(=O)O)CCCN(O)C(=O)/C=C(/C)CCOC(=O)C(NC(=O)CCC(=O)O)CCCN(O)C(=O)/C=C(/C)CCOC1=O (stereo not drawn) [FSC(succ)2AA, Fusarinine C(succ)2AA] | high solubility in water |  |  |  |  |  |  |  |  |  |  |  |  | 

Continued, in another order:

Row | solubility in water (Solubility in water) | bone uptake in the knee [1] | intact complex [2] | intact complex ([5]; pH 4, day 7, 37 °C) | intact complex ([5]; pH 6, 37 °C) | resistance to transchelation ([5]; pH 7, over seven days, 37 °C) | activity in blood [7] | Stability in Human Serum (%) [9] | Protein Binding (%) [10] | Log D [11] | SMILES | Stability in Human Serum (%) [3] | Protein Binding (%) [4] | Log D [6] | also measured
5 |  | 0.016 % ID/cm^3 | 39.8% | 70.3% | 94.4% | excellent resistance to transchelation | 0.05 ± 0.01 % ID/g |  |  |  | CC(=O)NC1CCCN([O-])C(=O)/C=C(/C)CCOC(=O)C(NC(C)=O)CCCN([O-])C(=O)/C=C(/C)CCOC(=O)C(NC(C)=O)CCCN([O-])C(=O)/C=C(/C)CCOC1=O.[89Zr+4] (stereo not drawn) [[^89Zr]Zr-TAFC, ^89Zr-triacetylfusarinine C, reference compound] | 99.5% | 6.8 ± 0.5% | −2.0 ± 0.0 | 
6 |  | 0.026 % ID/cm^3 | 62.1% | 87.9% | 97.8% | excellent resistance to transchelation | 0.11 ± 0.08 % ID/g | 99.5% | 8.3 ± 3.5% | −3.5 ± 0.4 | CC1=CC(=O)N([O-])CCCC(NC(=O)CCC(=O)[O-])C(=O)OCCC(C)=CC(=O)N([O-])CCCC(NC(=O)CCC(=O)O)C(=O)OCCC(C)=CC(=O)N([O-])CCCC(NC(=O)CCC(=O)[O-])C(=O)OCC1.[89Zr+4] (mixture of isomers) [[^89Zr]Zr-FSC(succ)3] |  |  |  | activity in bone [7]: 0.24 ± 0.04 % ID/g; activity in heart [7]: 0.28 ± 0.08 % ID/g; activity in lung [7]: 0.21 ± 0.04 % ID/g; activity in muscle [7]: 0.25 ± 0.07 % ID/g
